This is an account of results in US12065434B2, “Metabolites of GLP1R agonists” (Pfizer Inc., priority 2020, dated 2024).

The test system of one data set is mouse hepatocytes. Briefly: In vitro metabolism of Compound 2 in mouse cryopreserved hepatocytes. The class given is in vitro ADME. Also on record: key to Relative abundance of metabolite of Compound 2, Mouse: ND Not detected.; trace: Trace: observed by HPLC/MS measurements only.; + Minor as assessed by HPLC/UV measurements; ++ moderate as assessed by HPLC/UV measurements; +++ major as assessed by HPLC/UV measurements.; * m/z 593 and m/z 505 co-eluted in rabbit hepatocytes.; ** m/z 591 c and m/z 593 were merged in human hepatocytes and Hepatopack.; *** m/z 607 and m/z 751 b were merged in rabbit hepatocytes. The following applies: for metabolite of Compound 2 observed in mouse hepatocyte incubations: 10 μM Compound 2, 7.5×10^5 cells/mL, 1 and 4 hrs composite. As for the experimental part: (§1) Male CD-1 mouse hepatocytes (lot YHL), male Wistar-Han rat hepatocytes (Celsius; product number: M000065; lot: SLA), female New Zealand rabbit hepatocytes (lot 1510147), male cryopreserved cynomolgus monkey hepatocytes (Celsius; product number: M00305; lot: DNB) and mixed-gender cryopreserved human hepatocytes (Bioreclamation; product number: S01988; lot: DCM) were obtained for the hepatocyte in-vitro assessments.
(§2) At time 0 hrs 550 μL aliquots were removed from incubations and quenched with 5 volumes of ACN containing 0.1% formic acid. At 1 and 4 hrs, 275 μL aliquots were removed and quenched as above; these were combined in the same tube to prepare a composite sample. For all hepatocyte experiments, samples were processed by centrifugation at 1900×g for 5 minutes, and then the supernatant was transferred to clean glass tubes and evaporated to dryness under a stream of N2 using a Turbovap at 37° C. Sample residues were reconstituted in mobile phase prior to analysis by HPLC/UV/MS^n.
(§3) Samples were analyzed by HPLC/UV/MS^n using a Thermo Orbitrap Elite mass spectrometer in conjunction with a Thermo Open Accela UHPLC system. A 3.0×150 mm, 2.5 μm Acquity CSH C18 HPLC column (Waters) was heated to 45° C. for separation of analytes. The mobile phase was a gradient of A): water containing 0.1% formic acid, and B): acetonitrile. The flow rate was 450 μL/min, and the following gradient program was utilized: […]
(§4) UV absorbance was monitored with a photo-diode array detector from 220-450 nm. The mass spectrometer was operated in positive-ion mode with a HESI ion source at a potential of 3.0 kV, and capillary and source heater temperatures of 380 and 300° C., respectively. Sheath, auxiliary, and sweep gas flows were set to 45, 10, and 2 units, respectively. Full scan mass spectra were acquired over the range 120-1200 m/z at a resolving power of 30,000 (specified at m/z 400). Data-dependent MS^n spectra were acquired in an automated fashion at 15,000 resolving power using CID and HCD fragmentation with normalized collision energy settings of 28 and 65 V, respectively.
(§5) Metabolites were characterized by comparisons of mass spectral fragmentation patterns with that of a Compound 2 standard. All HPLC/UV/MS^n data were processed using Xcalibur v. 2.2, and integrated UV peak areas were subjected to weighted UV binning procedures utilizing an Excel template.

The next data set has as its system rat hepatocytes. Briefly: In vitro metabolism of Compound 2 in rat cryopreserved hepatocytes. It counts as in vitro ADME. Set-up: key to Relative abundance of metabolite of Compound 2, Rat: ND Not detected.; trace: Trace: observed by HPLC/MS measurements only.; + Minor as assessed by HPLC/UV measurements; ++ moderate as assessed by HPLC/UV measurements; +++ major as assessed by HPLC/UV measurements.; * m/z 593 and m/z 505 co-eluted in rabbit hepatocytes.; ** m/z 591 c and m/z 593 were merged in human hepatocytes and Hepatopack.; *** m/z 607 and m/z 751 b were merged in rabbit hepatocytes. Conditions: for metabolite of Compound 2 observed in rat hepatocyte incubations: 10 μM Compound 2, 7.5×10^5 cells/mL, 1 and 4 hrs composite; for Relative abundance of metabolite of Compound 2, Rat: rat cryopreserved hepatocytes, HPLC/UV/MS. As for the experimental part: as §1, §2, §3, §4, §5

The subject of a further data set is rabbit hepatocytes. Briefly: In vitro metabolism of Compound 2 in rabbit cryopreserved hepatocytes. The following applies: for metabolite of Compound 2 observed in rabbit hepatocyte incubations: 10 μM Compound 2, 7.5×10^5 cells/mL, 1 and 4 hrs composite. Set-up: key to Relative abundance of metabolite of Compound 2, Rabbit: ND Not detected.; trace: Trace: observed by HPLC/MS measurements only.; + Minor as assessed by HPLC/UV measurements; ++ moderate as assessed by HPLC/UV measurements; +++ major as assessed by HPLC/UV measurements.; * m/z 593 and m/z 505 co-eluted in rabbit hepatocytes.; ** m/z 591 c and m/z 593 were merged in human hepatocytes and Hepatopack.; *** m/z 607 and m/z 751 b were merged in rabbit hepatocytes. It counts as in vitro ADME. As for the experimental part:
as §1, §2, §3, §4, §5

For the next data set, the system named is monkey hepatocytes. Briefly: In vitro metabolism of Compound 2 in monkey cryopreserved hepatocytes. It counts as in vitro ADME, cynomolgus monkey. The following applies: for metabolite of Compound 2 observed in monkey hepatocyte incubations: 10 μM Compound 2, 7.5×10^5 cells/mL, 1 and 4 hrs composite. Set-up: key to Relative abundance of metabolite of Compound 2, Monkey: ND Not detected.; trace: Trace: observed by HPLC/MS measurements only.; + Minor as assessed by HPLC/UV measurements; ++ moderate as assessed by HPLC/UV measurements; +++ major as assessed by HPLC/UV measurements.; * m/z 593 and m/z 505 co-eluted in rabbit hepatocytes.; ** m/z 591 c and m/z 593 were merged in human hepatocytes and Hepatopack.; *** m/z 607 and m/z 751 b were merged in rabbit hepatocytes. As for the experimental part:
as §1, §2, §3, §4, §5

The next data set relates to human hepatocytes. Briefly: In vitro metabolism of Compound 2 in human cryopreserved hepatocytes. The class given is in vitro ADME. Set-up: key to Relative abundance of metabolite of Compound 2, Human: ND Not detected.; trace: Trace: observed by HPLC/MS measurements only.; + Minor as assessed by HPLC/UV measurements; ++ moderate as assessed by HPLC/UV measurements; +++ major as assessed by HPLC/UV measurements.; * m/z 593 and m/z 505 co-eluted in rabbit hepatocytes.; ** m/z 591 c and m/z 593 were merged in human hepatocytes and Hepatopack.; *** m/z 607 and m/z 751 b were merged in rabbit hepatocytes. The following applies: for metabolite of Compound 2 observed in human hepatocyte incubations: 10 μM Compound 2, 7.5×10^5 cells/mL, 1 and 4 hrs composite. As for the experimental part:
as §1, §2, §3, §4, §5

Data set [1] can be described thus: Metabolite profiling of pooled human plasma after repeat oral dosing of Compound 1 (HPLC/UV/MS). The following applies: for observed as major or minor metabolite in human plasma: Compound 1 120 mg BID, Day 28; for Plasma Extracts: Compound 1 120 mg oral BID, Day 28, HPLC/UV/MS.
Procedure: Plasma samples from nine human subjects following oral administration of 120 mg BID for 28 days in a clinical study were examined for metabolites.
Individual subject's plasma (from nine human subjects with 120 mg BID dose Day 28) were pooled in proportion to the time period represented by each to yield a pool for profiling that was representative of the AUC (0-12 hr) according to the method of Hamilton et al. [Hamilton R A, Garnett W R, Kline B J. Determination of a mean valproic acid serum level by assay of a single pooled sample. […] Pooled plasma time points were first prepared by aliquoting equal amounts (1.0 mL) of plasma from each subject prior to making a single Hamilton pool. Blank plasma pools were made by taking equal aliquots of predose samples. To a 2 mL aliquot of each pooled plasma sample was added 6 mL of acetonitrile and then mixed. Protein precipitated samples were centrifuged for 5 minutes at 2000×g and the supernatants were transferred to other clean 15 mL centrifuge tubes. Samples were dried using an evaporative centrifuge set to 37° C. Samples were reconstituted using 0.2 mL of 5:95 acetonitrile:water and analyzed by HPLC/UV/MS.
Reconstituted samples were analyzed by positive ion HPLC/UV/MS using a Thermo Orbitrap Elite mass spectrometer operating in positive ion electrospray mode. Xcalibur software version 3.0.63 was used to control the HPLC/UV/MS system. Full scan data were collected at 15,000 resolution. Data dependent product ion scans of the two most intense ions found in the full scan were obtained at 15,000 resolution. The dynamic exclusion function was used with a 10 second exclusion duration after 3 successive product ion scans with an early exclusion if the precursor ion fell below a signal to noise ratio of 20. The HPLC system consisted of an Accela quaternary solvent delivery pump, an Accela autoinjector, an Accela PDA Plus photodiode array detector (Thermo Electron Corporation). Chromatography was performed on a Phenomenex Kinetex column (2.1 mm×100 mm, 2.6 μm) at 45° C. using a HotSleeve column heater (Analytical Sales and Services). The mobile phase was composed of 0.1% formic acid in water (solvent A) and acetonitrile (solvent B). The solvent delivery gradient program was as follows:

For the compound `C[C@]1(c2ccc(Cl)cn2)Oc2cccc(C3CCN(Cc4nc5ccc(C(=O)O)cc5[nH]4)CC3)c2O1` [Metabolite 505, (S)-2-((4-(2-(5-chloropyridin-2-yl)-2-methylbenzo[d][1,3]dioxol-4-yl)piperidin-1-yl)methyl)-1H-benzo[d]imidazole-6-carboxylic acid], in the data set with mouse hepatocytes, the “metabolite of Compound 2 observed in mouse hepatocyte incubations” value (“metabolite … in mouse hepatocyte incubations” below) is recorded as “observed”. Besides, the “Relative abundance of metabolite of Compound 2, Mouse” value with mouse hepatocytes (mouse cryopreserved hepatocytes, HPLC/UV/MS) is reported as “trace”. Further, in the data set on rat hepatocytes, the “metabolite of Compound 2 observed in rat hepatocyte incubations” value (from here on “metabolite … in rat hepatocyte incubations”) is recorded as “observed” and the “Relative abundance of metabolite of Compound 2, Rat” value is listed as “trace”. Besides, in the data set with rabbit hepatocytes, the “metabolite of Compound 2 observed in rabbit hepatocyte incubations” value (shortened to “metabolite … in rabbit hepatocyte incubations”) was “observed”. Also, the “Relative abundance of metabolite of Compound 2, Rabbit” value in the data set on rabbit hepatocytes (rabbit cryopreserved hepatocytes, HPLC/UV/MS) is “*”.

As to `C[C@]1(c2ccc(Cl)cn2)Oc2cccc(C3CC[N+]([O-])(Cc4nc5ccc(C(=O)O)cc5n4C[C@@H]4CCO4)CC3)c2O1` (stereo partly drawn) [Metabolite 591d], the “metabolite … in mouse hepatocyte incubations” value in the data set with mouse hepatocytes is given as “observed in all hepatocyte incubations”. Further, the “metabolite … in rat hepatocyte incubations” value in the data set on rat hepatocytes is given as “observed in all hepatocyte incubations”. The “metabolite … in rabbit hepatocyte incubations” value in the data set with rabbit hepatocytes was “observed in all hepatocyte incubations”. Moreover, in the data set on monkey hepatocytes, the “metabolite of Compound 2 observed in monkey hepatocyte incubations” value (“metabolite … in monkey hepatocyte incubations” for short) was “observed in all hepatocyte incubations”. The “metabolite of Compound 2 observed in human hepatocyte incubations” value (“metabolite … in human hepatocyte incubations” below) in the data set on human hepatocytes is recorded as “observed in all hepatocyte incubations”.

As to `N#Cc1ccc(COc2cccc(C3CCNCC3)n2)c(F)c1` [Compound M3, 3-fluoro-4-(((6-(piperidin-4-yl)pyridin-2-yl)oxy)methyl)benzonitrile], in data set [1], the “observed as major or minor metabolite in human plasma” value (from here on “observed as major or minor metabolite”) is given as “minor metabolite” and the “Plasma Extracts” value is reported as “+”.

Consider `N#Cc1ccc(COc2cccc(C3(O)CCN(Cc4nc5ccc(C(=O)O)cc5n4C[C@@H]4CCO4)CC3)n2)c(F)c1` [Compound M4, (S)-2-((4-(6-((4-cyano-2-fluorobenzyl)oxy)pyridin-2-yl)-4-hydroxypiperidin-1-yl)methyl)-1-(oxetan-2-ylmethyl)-1H-benzo[d]imidazole-6-carboxylic acid], for which the “Plasma Extracts” value in data set [1] was “+”.

With `O=C(O)c1ccc2nc(CN3CCC(c4cccc(O)c4O)CC3)n(C[C@@H]3CCO3)c2c1` [Metabolite 438, (S)-2-((4-(2,3-dihydroxyphenyl)piperidin-1-yl)methyl)-1-(oxetan-2-ylmethyl)-1H-benzo[d]imidazole-6-carboxylic acid], in the data set with rat hepatocytes, the “metabolite … in rat hepatocyte incubations” value is “trace metabolite” and the “Relative abundance of metabolite of Compound 2, Rat” value is listed as “trace”. Moreover, the “metabolite … in monkey hepatocyte incubations” value in the data set with monkey hepatocytes was “trace metabolite”. Moreover, the “Relative abundance of metabolite of Compound 2, Monkey” value in the data set on monkey hepatocytes (monkey cryopreserved hepatocytes, HPLC/UV/MS) was “trace”. Also, in the data set with human hepatocytes, the “metabolite … in human hepatocyte incubations” value is reported as “trace metabolite”. Also, the “Relative abundance of metabolite of Compound 2, Human” value in the data set with human hepatocytes (human cryopreserved hepatocytes, HPLC/UV/MS) was “trace”.

For `N#Cc1ccc(COc2cccc(C3CCN(Cc4nc5ccc(C(=O)O)cc5n4C[C@@H]4CCO4)CC3)n2)c(F)c1` [Compound 1, 2-[(4-{6-[(4-Cyano-2-fluorobenzyl)oxy]pyridin-2-yl}piperidin-1-yl)methyl]-1-[(2S)-oxetan-2-ylmethyl]-1H-benzimidazole-6-carboxylic acid], the “Plasma Extracts” value in data set [1] is “+++”.

For the compound `N#Cc1ccc(COc2cccc(C(CCO)CCNCc3nc4ccc(C(=O)O)cc4n3C[C@@H]3CCO3)n2)c(F)c1` (stereo partly drawn) [Compound 574a, 2-(((3-(6-((4-cyano-2-fluorobenzyl)oxy)pyridin-2-yl)-5-hydroxypentyl)amino)methyl)-1-(((S)-oxetan-2-yl)methyl)-1H-benzo[d]imidazole-6-carboxylic acid], in data set [1], the “observed as major or minor metabolite” value was “minor metabolite” and the “Plasma Extracts” value was “+”.

Take `N#Cc1ccc(COc2cccc(C3CCN(Cc4nc5ccc(C(=O)O)cc5n4CC(O)CCO)CC3)n2)c(F)c1` (stereo not drawn) [Compound 574b, 2-((4-(6-((4-cyano-2-fluorobenzyl)oxy)pyridin-2-yl)piperidin-1-yl)methyl)-1-(2,4-dihydroxybutyl)-1H-benzo[d]imidazole-6-carboxylic acid]: in data set [1], the “observed as major or minor metabolite” value is on record as “minor metabolite” and the “Plasma Extracts” value is reported as “+”.

For the compound `C[C@]1(c2ccc(Cl)cn2)Oc2cccc(C3=CCN(Cc4nc5ccc(C(=O)O)cc5n4C[C@@H]4CCO4)CC3)c2O1` [Metabolite 573a], in the data set with mouse hepatocytes, the “metabolite … in mouse hepatocyte incubations” value is “low-level metabolite”. Also, in the data set on rat hepatocytes, the “metabolite … in rat hepatocyte incubations” value was “low-level metabolite”. Further, the “metabolite … in rabbit hepatocyte incubations” value with rabbit hepatocytes is on record as “low-level metabolite”. In addition, the “metabolite … in monkey hepatocyte incubations” value in the data set with monkey hepatocytes is “low-level metabolite”. Also, the “metabolite … in human hepatocyte incubations” value in the data set with human hepatocytes is on record as “low-level metabolite”.
